Assay results reported in patent US11464753B2, “Composition for treatment of neurodegenerative disease” (WINNING THE FIGHT INC., priority 2013, dated 2022).
Entries after “also recorded” stand apart in the source; their conditions may differ.

How the values were obtained:
[1] = system: patients suffering from neurodegenerative diseases; experiment: Oral AKG in patients suffering from neurodegenerative diseases; type: in vivo, human
Source text: Initial results in mutant SOD1 mice show similar benefits compared to controls, when administered one example of the composition. […] In some instances, progression of the diseases were delayed or even reversed in human patients.
In Example A of Table A a sustained release formulation of […] is preferred.
For example, an […] ([…] or […]) is included in a composition to be used by patients with a neurodegenerative disease at a baseline dosage.
Results for people with various neurodegenerative diseases have shown that a core composition taken three times daily can provide a combination of supplements that are needed by the patients.

ALS patients = experiment: Administration of AKG-containing compositions to human ALS patients, observation of symptoms
Experimental: In one example, 250 mg of GABA was administered three times per day per os, 30 mg of NADH was administered twice per day sublingually, and 3 grams of AAKG were administered, initially, four times per day per os, with the dosage gradually increasing up to 18 grams, if tolerated by the patient.

| Compound | improvement at sub-optimal dosage ([1]; AKG dosage of only six to eight grams) | symptoms when AKG was withheld ([1]; AKG withheld from a patient, then recommenced) | symptoms of neurodegenerative disease ([1]; human patients (ALS, Alzheimers, Muscular Distrophy) taking AKG) | improvement with hourly AKG (ALS patients; human patient, AKG supplement hourly during waking hours compared to four times per day) | symptoms of ALS after withdrawal of AKG (ALS patients; withdrawal for a short period (a few days)) | muscle tone and muscle spasticity (ALS patients; GABA administered as a supplement, patients with neurodegenerative diseases such as ALS) |
| --- | --- | --- | --- | --- | --- | --- |
| O=C(O)CCC(=O)C(=O)O [AKG, alpha-ketoglutaric acid] | some improvement | symptoms returned | fewer symptoms of the diseases; also recorded: marked, obvious improvements | marked improvement | return of symptoms of ALS |  |
| NCCCC(=O)O [GABA, gamma aminobutyric acid] |  |  |  |  |  | restore muscle tone; also recorded: diminished muscle spasticity |
